# According to PMC7758436 (Frontiers in Veterinary Science, 2020):
# Like-named read-outs stand apart in the source and are kept apart here.
# Legend:
# [1] = test system: amastigote forms of L. (L.) amazonensis; assay: In vitro leishmanicidal activity against intracellular amastigote forms in peritoneal murine macrophages (Giemsa, parasite load); type: cell-based; conditions: Leishmania amazonensis, Macrophage, 48 h, value (95% CI)
# Method: (§1) L. (L.) amazonensis (IFLA/BR/67/PH8.) was maintained as promastigote forms in Roswell Park Memorial Institute medium (RPMI 1640 medium) (Gibco, Grand Island, NY, USA), supplemented with antibiotics (penicillin 10.000 UI/mL and streptomycin […]) (Cultilab, Campinas, BR), and 10% bovine fetal serum (FBS) (Cultilab), at 25°C. L. (L.) infantum (MHOM/BR/1972/LD) was maintained as promastigote forms in M199 medium (Gibco), supplemented with 10% FBS (Cultilab), antibiotics (Cultilab), 5% human urine and 0.25% hemin (Sigma-Aldrich) at 25°C, and amastigote forms were obtained from the spleen of golden hamsters after 60 to 70 days of infection ([21]). Peritoneal murine macrophages were obtained by washing the peritoneal cavity of BALB/c mice with RPMI 1640 medium (Gibco) after 72 h of the application of 5 mL of the sodium thioglycolate (Sigma-Aldrich) at 3%, and then were cultivated in RPMI 1640 medium (Gibco) supplemented with antibiotics and 10% FBS (Gibco), at 37°C in a 5% CO2 humidified incubator.
# (§2) Initially, a screening was performed against promastigote forms of L. (L.) amanzonensis. […] The slides were stained with Giemsa (Synth, Diadema, BR), analyzed using an optical microscopy (Nikon), and the parasite load was defined by the number of infected macrophages X number of intracellular amastigotes/number of total macrophages ([23]). […]
# [2] = test system: promastigote forms of L. (L.) amazonensis; assay: In vitro leishmanicidal activity, growth inhibition of promastigote forms (counting in Neubauer's chamber); type: cell-based, Leishmania (Leishmania) amazonensis; conditions: value (95% CI)
# Method: as §1
# Initially, a screening was performed against promastigote forms of L. (L.) amanzonensis. […] […], and the leishmanicidal activity was determined by the inhibition of growth of the promastigote forms by counting the total number of live promastigote in Neubauer's chamber (Global Glass, São Paulo, BR) using an optical microscope (Nikon New York, USA). […] To evaluate the leishmanicidal activity against amastigote forms, peritoneal murine macrophages were seemed (2 × 10^5 cells per well) in 24-well plates on slide chambers and incubated at 37°C for 24 h. […] The slides were stained with Giemsa (Synth, Diadema, BR), analyzed using an optical microscopy (Nikon), and the parasite load was defined by the number of infected macrophages X number of intracellular amastigotes/number of total macrophages ([23]). Parasites cultured in medium with 0.1% were used as negative control and parasites cultured in medium with MA or AmpB were used as positive controls.
# [3] = In vitro hemolytic activity; type: cell-based, sheep; conditions: sheep
# Method: (§3) Defibrinated sheep blood (Newprov, Pinhais, PR, BR) was diluted in 0.9% saline solution and a suspension at 3% of erythrocytes was transferred (100 μL) in 96-well plates. […] The hemolytic activity was determined in the cell supernatant by optical density reading at 415 nm (Libra S12–Biochrom–Cambridge, RU) Distilled water was used as a positive control, and 0.9% saline solution with 0.1% DMSO was used as negative control.
# [4] = In vitro cytotoxic activity, MTT assay; type: cell-based, BALB/c mice; conditions: BALB/c, mouse, 48 h, MTT, value (95% CI)
# Method: as §1
# (§4) The cells were incubated at 37°C in a 5% CO2 humidified incubator at 37°C during 48 h, and the cytotoxic activity was determined using MTT assay ([23]). Cells cultured in medium with 0.1% DMSO were used as negative control and cells cultured in medium with 25% DMSO were used as positive control.
# HFF cell = conditions: ref [32]; cited from earlier work
# [5] = Hepatotoxicity in no-infected hamsters, serum ALT and AST; type: in vivo, golden hamsters (Mesocricetus auratus); conditions: for serum levels of aminotransaminases (ALT, AST): no-infected hamsters, 15 days, vs negative control group
# Method: After this period, serum concentrations of alanine aminotransferase (ALT) and aspartate aminotransferase (AST) were determined using sets of commercial reagents (Labtest, Minas Gerais, Brazil). Negative control group received the same number of injections of PBS.
# amastigotes = conditions: 2.5 μM, 72 h of incubation; ref [10], [11]; cited from earlier work
# [6] = ref [11], cited from earlier work
# erythrocytes = conditions: after 24 h; ref [33]; cited from earlier work
# L. (L.) infantum = assay: In vivo leishmanicidal activity in L. (L.) infantum-infected hamsters (limiting dilution); design: species or system golden hamsters (Mesocricetus auratus); conditions: for reduction of parasite burden in liver / reduction of parasite burden in spleen: intraperitoneal, eight consecutive days, vs negative control group; for survival rate / average body weight: infected hamsters; for survival rate: after the treatment (data not shown); for average body weight: among negative, LicoA and MA groups
# Method: Male golden hamsters were infected by intraperitoneal route with 1.0 × 10^8 L. (L.) infantum amastigotes. Four weeks after infection, the animals were randomly separated in 4 groups of 6 animals each. […] Negative control group received the same number of injections of phosphate buffered saline (PBS) and animals from positive control group was treated with MA (Sanofi-Aventis) at dose 50 mg/kg of body weight during eight consecutive days by intraperitoneal route. Thirty five days after treatment the animals were sacrificed and the parasite burden was evaluated both in spleen and liver by limiting dilution method ([24]).
# [7] = test system: amastigote forms of L. (L.) infantum; assay: In vitro leishmanicidal activity against intracellular amastigote forms in peritoneal murine macrophages (Giemsa, parasite load); type: cell-based, Leishmania (Leishmania) infantum; conditions: 48 h, read-out: IC50 L (L.) infantum Amastigote 48 h
# Method: as §1, §2
# [8] = test system: promastigote forms of L. (L.) infantum; assay: In vitro leishmanicidal activity, growth inhibition of promastigote forms (counting in Neubauer's chamber); type: cell-based, Leishmania (Leishmania) infantum
# Method: as §1
# Initially, a screening was performed against promastigote forms of L. (L.) amanzonensis. […] The plates were incubated at same conditions previously described during 48 h, and the leishmanicidal activity was determined by the inhibition of growth of the promastigote forms by counting the total number of live promastigote in Neubauer's chamber (Global Glass, São Paulo, BR) using an optical microscope (Nikon New York, USA). […] To evaluate the leishmanicidal activity against amastigote forms, peritoneal murine macrophages were seemed (2 × 10^5 cells per well) in 24-well plates on slide chambers and incubated at 37°C for 24 h. […] The slides were stained with Giemsa (Synth, Diadema, BR), analyzed using an optical microscopy (Nikon), and the parasite load was defined by the number of infected macrophages X number of intracellular amastigotes/number of total macrophages ([23]). Parasites cultured in medium with 0.1% were used as negative control and parasites cultured in medium with MA or AmpB were used as positive controls.
# L. (L.) major = conditions: 2.5 and 5 mg/kg of body weight, intraperitoneal, 7 days after infection during 39 days; ref [11]; cited from earlier work
# [9] = test system: Peritoneal murine macrophages; assay: In vitro cytotoxic activity, MTT assay; type: cell-based, BALB/c mice
# Method: as §1, §4
# [10] = test system: Defibrinated sheep blood erythrocytes; assay: In vitro hemolytic activity; type: cell-based; conditions: 400 μM; 30 min at 37°C
# Method: as §3
# [11] = design: method as in PMID 29698432; conditions: ref [38]; cited from earlier work
# L. (L.) donovani = conditions: 20 mg/kg of body weight per day, intraperitoneal, six consecutive days; vs untreated control; ref [11]; cited from earlier work
# [12] = Leishmania amazonensis, 24 h, read-out: IC50 L (L.) amazonensis Promastigote 24 h
# [13] = Leishmania amazonensis, 48 h, read-out: IC50 L (L.) amazonensis Promastigote 48 h
# [14] = 50 mg/kg of body weight per day intraperitoneally
# [15] = 20 mg/kg of body weight per day
# [16] = 50 mg/kg of body weight per day
# [17] = 48 h, MTT, value (95% CI), read-out: CC50 Peritoneal murine macrophages 48 h
compound,measurement,setting,value
"C[C@@H]1[C@H](O)[C@@H](C)/C=C/C=C/C=C/C=C/C=C/C=C/C=C/[C@H](O[C@@H]2O[C@H](C)[C@@H](O)[C@H](N)[C@@H]2O)C[C@@H]2O[C@](O)(C[C@@H](O)C[C@@H](O)[C@H](O)CC[C@@H](O)C[C@@H](O)CC(=O)O[C@H]1C)C[C@H](O)[C@H]2C(=O)O [AmpB, amphotericin B, reference compound]",IC50,[1],0.022 µM
same,IC50,[2]; [12],0.27 µM
same,IC50,[2]; [13],0.065 µM
same,"hemolysis at 30 min, 100 µM",[3],60%
same,"hemolysis at 30 min, 200 µM",[3],100%
"COc1ccc(C(=O)/C=C/c2ccc(OCC=C(C)C)c(OC)c2)cc1 [LLA1 (1a), (E)-3-(3-methoxy-4-((3-methylbut-2-en-1-yl)oxy)phenyl)-1-(4-methoxyphenyl)prop-2-en-1-one]",CC50 at 48 h,[4]; peritoneal murine macrophages,> 400 µM
same,IC50,[2]; [12],74.9 µM
same,IC50,[2]; [13],67.2 µM
"C=CC(C)(C)c1cc(/C=C/C(=O)c2ccc(O)cc2)c(OC)cc1O [LicoA (1), Licochalcone A]",toxicity in HFF cell in vitro,HFF cell,low-toxicity
same,hepatotoxicity,"[5]; LicoA-treated vs non-treated groups, serum aminotransaminases",No evidence of hepatotoxicity
same,"serum levels of aminotransaminases (ALT, AST)",[5]; 20 mg/kg of body weight per day intraperitoneally,no significant alterations
same,"serum levels of aminotransaminases (ALT, AST)",[5]; [14],no significant alterations
same,effect on number of amastigotes,amastigotes,reduction in the number of amastigotes
same,"toxicity, intraperitoneal","[6]; 100 mg/kg in rats and 150 mg/kg in hamsters, intraperitoneal",did not show any toxicity
same,"signs of toxicity, oral","[6]; doses higher than 1,000 mg/kg, orally once a day for 2 weeks",did not cause any signs of toxicity
same,concentration inducing hemolysis (cell shrinkage and phospholipid scrambling of the cell membrane),erythrocytes,higher than 30 μM
same,reduction of parasite burden in liver,L. (L.) infantum; [15],15.27%
same,reduction of parasite burden in spleen,L. (L.) infantum; [15],20.69%
same,reduction of parasite burden in liver,L. (L.) infantum; [16],43.67%
same,reduction of parasite burden in spleen,L. (L.) infantum; [16],39.81%
same,survival rate,L. (L.) infantum,100%
same,average body weight,L. (L.) infantum,no significant variation
same,IC50,"[7]; Leishmania infantum, Macrophage",29.6 µM
same,IC50,"[8]; Leishmania infantum, 24 h, read-out: IC50 L (L.) infantum Promastigote 24 h",41.1 µM
same,IC50,"[8]; Leishmania infantum, 48 h, read-out: IC50 L (L.) infantum Promastigote 48 h",12.5 µM
same,lesion development,L. (L.) major,completely prevented lesion development
same,CC50 at 48 h,[4]; read-out: CC50 Peritoneal murine macrophages 48 h,123 µM
same,CC50,[9]; [17],123 µM
same,IC50,[1],36.8 µM
same,IC50,[2]; [12],20.3 µM
same,IC50,[2]; [13],3.88 µM
same,hemolytic activity,[10],about 30%
same,effect against Acetaminophen overdose-induced hepatotoxicity,[11],protective effect
same,reduction of parasite load in the liver and the spleen,L. (L.) donovani,> 96%
(E)-3-(4-hydroxy-3-methoxyphenyl)-1-(4-hydroxyphenyl)prop-2-en-1-one [LLA2 (2a)],CC50,[9],> 400 µM
same,IC50,"[2]; 24 h, read-out: IC50 L (L.) amazonensis Promastigote 24 h",301 µM
same,IC50,"[2]; 48 h, read-out: IC50 L (L.) amazonensis Promastigote 48 h",287 µM
"meglumine antimoniate [MA, reference compound]","serum levels of aminotransaminases (ALT, AST)",[5]; [14],significant increase
same,reduction of parasite burden in liver,L. (L.) infantum; [16],55.87%
same,reduction of parasite burden in spleen,L. (L.) infantum; [16],63.57%
same,survival rate,L. (L.) infantum,100%
same,average body weight,L. (L.) infantum,no significant variation
same,IC50,"[7]; in peritoneal murine macrophages, value (95% CI)",> 400 µM
same,IC50,"[8]; 24 h, value (95% CI), read-out: IC50 L (L.) infantum Promastigote 24 h",> 400 µM
same,IC50,"[8]; 48 h, value (95% CI), read-out: IC50 L (L.) infantum Promastigote 48 h",> 400 µM
same,cytotoxicity at concentrations evaluated,"[9]; 12.5–400 μM, 48 h",no cytotoxicity
same,CC50,[9]; [17],> 400 µM
